Data taken from patent EP0019223A1, “Optically active hydantoin derivatives, their synthesis, pharmaceutical formulations containing them, and intermediates” (THE WELLCOME FOUNDATION LIMITED, priority 1979, dated 1980).

Legend:
[1] = test system: human platelet rich plasma; test: Inhibition of ADP-stimulated platelet aggregation in fresh human platelet rich plasma (Born aggregometer); assay type: cell-based; details: for Inhibition of platelet aggregation x PGE1: relative potency with respect to PGE1, 1 minute incubation at 37°C, ADP 2 to 5 µM; for activity (anti-platelet-aggregation) times that of PGE1: summary values given in the description
Description: Aggregation of platelets in […] of fresh human platelet. rich plasma (PRP) was monitored in a Born aggregometer.
The compound to be tested was added to the PRP at the desired concentration, and the resulting mixture incubated at 37°C for 1 minute after which platelet aggregation was stimulated by the addition of adenosine diphosphate (ADR) in a concentration just causing maximal aggregation (2 to 5 µM).
The anti-aggregatory effect of the compound was assessed by measuring the percentage inhibition of platelet aggregation in the presence of the compound as compared with when it was completely absent.

blood platelets = test: Aggregation tests on rabbits (combination with phosphodiesterase inhibitor); assay type: in vivo; details: dipyridamole combined with the (5S,3R) isomer

Row | Structure (SMILES) | IC50 ([1]; inhibition of platelet aggregation, human PRP) [µg/mL] | Inhibition of platelet aggregation x PGE1 ([1]; first of two experiments) | activity (anti-platelet-aggregation) times that of PGE1 [1] | Inhibition of platelet aggregation x PGE1 ([1]; second of two experiments) [x PGE1] | anti-platelet-aggregation inhibitory effect relative to the activity of the corresponding racemate ([1]; compared with racemate of (5S,3R) and (5R,3S) isomers) | potentiation of the anti-aggregatory effect of the active compound ([1]; dipyridamole combined with the (5S,3R) isomer, human platelet rich plasma) | potentiation of the anti-aggregatory effect of the active compound (blood platelets)
1 | O=C(O)CCCCCC[C@@H]1C(=O)NC(=O)N1CC[C@H](O)C1CCCCC1 [[(5R),(3S)], (5R)-5-(6-carboxyhexyl)-1-[(3S)-3-cyclohexyl-3-hydroxypropyl]hydantoin] | > 2 | inactive | inactive | – | – | – | –
2 | O=C(O)CCCCCC[C@H]1C(=O)NC(=O)N1CC[C@H](O)C1CCCCC1 [[(5S),(3S)], (5S)-5-(6-carboxyhexyl)-1-[(3S)-3-cyclohexyl-3-hydroxypropyl]hydantoin] | – | 0.07 x PGE1 | 0.06 times that of PGE1 | 0.05 | – | – | –
3 | O=C(O)CCCCCC[C@@H]1C(=O)NC(=O)N1CC[C@@H](O)C1CCCCC1 [[(5R),(3R)], (5R)-5-(6-carboxyhexyl)-1-[(3R) - 3-cyclohexyl 3-hydroxypropyl] hydantoin] | – | 0.05 x PGE1 | 0.05 times that of PGE1 | 0.04 | – | – | –
4 | O=C(O)CCCCCC[C@H]1C(=O)NC(=O)N1CC[C@@H](O)C1CCCCC1 [[(5S),(3R)], (5S)-5-(6-carboxyhexyl)-1-[(3R)-3-cyclohexyl-3-hydroxypropyl] hydantoin] | – | 83 x PGE1 | ~40 times that of PGE1 | 47 | at least twice | – | –
5 | OCCN(CCO)c1nc(N2CCCCC2)c2nc(N(CCO)CCO)nc(N3CCCCC3)c2n1 [dipyridamole, 2,2',2",2'"-(4,8-dipiperidinopy-rimido [5,4-d]pyrimidine-2,6-diyldinitrilo)tetraethanol, reference compound] | – | – | – | – | – | potentation of the anti-aggregatory effect | potentation of the anti-aggregatory effect
